Experimental findings from US20230058961A1, “SUBSTITUTED HETEROCYCLICS WITH THERAPEUTIC ACTIVITY IN HIV” (New York Blood Center, Inc., priority 2019, published 2023) are described below.

SMILES strings stand for the structures.

A short description of one data set: in vitro. The conditions noted are these: human.
The next data set concerns pseudovirus HIV-1 HXB2. Nature of the data set: microbe, parasite or virus in culture. The data set is classed as cell-based.
Setting [1] is: Human immunodeficiency virus 1, HXB2, TZM-bl, anti-HIV-1 activity, single-cycle assay, TZM-bl cells, pseudovirus HIV-1 HXB2, read-out: IC50.
Where [2] appears, read: anti-HIV-1 activity, single-cycle assay, TZM-bl cells, pseudovirus HIV-1 HXB2, read-out: IC50.
[3] abbreviates: CC50, cytotoxicity, TZM-bl cells, MTS, 3 days.

Experimental for in vitro: The anti-HIV-1 activity was assessed in a single-cycle assay by infecting TZM-bl indicator cells with the pseudovirus HIV-1 HXB2 according to established procedures (F. Curreli, Y. D. Kwon, D. S. Belov, R. R. Ramesh, A. V. Kurkin, A. Altieri, P. D. Kwong, A. K. Debnath, J Med Chem 2017, 60, 3124-3153; which is incorporated herein by reference for all that it teaches about the conduct and interpretation of the assay).
The cytotoxicity of the small polycyclic molecules in TZM-bl cells was determined by using the colorimetric method CellTiter 96® AQueous One Solution Cell Proliferation Assay (MTS) (Promega) following the manufacturer's instructions. Briefly, TZM-bl cells were platted in a 96-well tissue culture plate at 1×10^4/well and cultured at 37° C. Following overnight incubation, the cells were incubated with 100 μl of the compounds at graded concentrations and cultured for 3 days. The MTS reagent was added to the cells and incubated for 4 h at 37° C. The absorbance was recorded at 490 nm.

Take `COc1cc(-c2ccc(C(=O)NC(CN)c3nc(CO)cs3)[nH]2)ccn1` (stereo not drawn) [Compound 47, N-(2-Amino-1-(4-(hydroxymethyl)thiazol-2-yl)ethyl)-5-(2-methoxypyridin-4-yl)-1H-pyrrole-2-carboxamide]: the CC50 at 3 days in “in vitro” (CC50) was more than 133 µM. The IC50 in the data set on pseudovirus HIV-1 HXB2 (setting [1]) is more than 10 µM; in the data set with pseudovirus HIV-1 HXB2 (setting [2]) it was more than 11 µM.

Consider `NCC(NC(=O)c1ccc(-c2ccc(C(F)(F)F)cn2)[nH]1)c1csc(C(=O)NCCO)n1` (stereo not drawn) [Compound 69, 4-(2-Amino-1-(5-(5-(trifluoromethyl)pyridin-2-yl)-1H-pyrrole-2-carboxamido)ethyl)-N-(2-hydroxyethyl)thiazole-2-carboxamide], for which the CC50 at 3 days in “in vitro” (CC50) was more than 107 µM. The IC50 in the data set with pseudovirus HIV-1 HXB2 (setting [1]) is more than 21.3 µM.

Consider `NCC(NC(=O)c1ccc(-c2ccc(C(F)(F)F)cn2)[nH]1)c1nc(C(O)CO)cs1` (stereo not drawn) [Compound 29, N-(2-Amino-1-(4-(1,2-dihydroxyethyl)thiazol-2-yl)ethyl)-5-(5-(trifluoromethyl)pyridin-2-yl)-1H-pyrrole-2-carboxamide], for which the CC50 at 3 days was more than 113 µM in “in vitro” (CC50) and more than 100 µM in “in vitro” (setting [3]). Moreover, in the data set with pseudovirus HIV-1 HXB2 (setting [1]), the IC50 stood at 5.2 ± 0.9 µM.

The molecule `Cc1cc(-c2ccc(C(F)(F)F)cn2)[nH]c1C(=O)NC(C)(CN)c1nc(CO)cs1` (racemic) [Compound 31, N-(1-Amino-2-(4-(hydroxymethyl)thiazol-2-yl)propan-2-yl)-3-methyl-5-(5-(trifluoromethyl)-pyridin-2-yl)-1H-pyrrole-2-carboxamide] yielded a CC50 at 3 days in “in vitro” (CC50) of more than 68.3 µM. The IC50 with pseudovirus HIV-1 HXB2 (setting [1]) came out at 2.6 ± 0.4 µM.

As to `NCC(NC(=O)c1ccc(-c2ccc(Cl)cn2)[nH]1)c1cnc(CO)s1` (stereo not drawn) [Compound 59, N-(2-Amino-1-(2-(hydroxymethyl)thiazol-5-yl)ethyl)-5-(5-chloropyridin-2-yl)-1H-pyrrole-2-carboxamide], in the data set “in vitro” (CC50), the CC50 at 3 days is more than 106 µM. Further, in the data set on pseudovirus HIV-1 HXB2 (setting [2]), the IC50 was approximately 26 µM.

Take `CC(C)(N)C(NC(=O)c1ccc(-c2ccc(C(F)(F)F)cn2)[nH]1)c1nc(CO)cs1` (stereo not drawn) [Compound 23, N-(2-Amino-1-(4-(hydroxymethyl)thiazol-2-yl)-2-methylpropyl)-5-(5-(trifluoromethyl)pyridin-2-yl)-1H-pyrrole-2-carboxamide]: the CC50 at 3 days in “in vitro” (CC50) was 61 ± 6.5 µM; in the data set “in vitro” (setting [3]), less than 50 µM. In addition, the IC50 with pseudovirus HIV-1 HXB2 (setting [2]) was found to be 1.73 µM.

`Cc1cc(-c2ccc(Cl)cn2)[nH]c1C(=O)NC(CN)c1ncc(CO)s1` (stereo not drawn) [Compound 3, N-(2-Amino-1-(5-(hydroxymethyl)thiazol-2-yl)ethyl)-5-(5-chloropyridin-2-yl)-3-methyl-1H-pyrrole-2-carboxamide] returned a CC50 at 3 days in “in vitro” (CC50) of 98.3 ± 4 µM. Further, the IC50 with pseudovirus HIV-1 HXB2 (setting [1]) worked out at 1.2 ± 0.1 µM.

`NCC(NC(=O)c1ccc(-c2ccc(Cl)cn2)[nH]1)c1nc(CO)cs1` (stereo not drawn) [Compound 15, N-(2-Amino-1-(4-(hydroxymethyl)thiazol-2-yl)ethyl)-5-(5-chloropyridin-2-yl)-1H-pyrrole-2-carboxamide]: the CC50 at 3 days in the data set “in vitro” (CC50) is more than 132 µM; in the data set “in vitro” (setting [3]), more than 100 µM. Further, in the data set with pseudovirus HIV-1 HXB2 (setting [2]), the IC50 turned out to be 5 ± 0.5 µM.

With `NCC(NC(=O)c1ccc(-c2ccc(Cl)cn2)[nH]1)c1csc(CO)n1` (stereo not drawn) [Compound 67, N-(2-Amino-1-(2-(hydroxymethyl)thiazol-4-yl)ethyl)-5-(5-chloropyridin-2-yl)-1H-pyrrole-2-carboxamide], the CC50 at 3 days in the data set “in vitro” (CC50) is more than 106 µM.

In the case of `NCC(NC(=O)c1ccc(-c2ccc(C(F)(F)F)cn2)[nH]1)c1cnc(CO)s1` (stereo not drawn) [Compound 57, N-(2-Amino-1-(2-(hydroxymethyl)thiazol-5-yl)ethyl)-5-(5-(trifluoromethyl)pyridin-2-yl)-1H-pyrrole-2-carboxamide], the CC50 at 3 days in “in vitro” (CC50) was more than 122 µM. For the same molecule, in the data set with pseudovirus HIV-1 HXB2 (setting [1]), the IC50 amounted to 2.1 ± 0.4 µM.

`Cc1cc(-c2ccc(C(F)(F)F)cn2)[nH]c1C(=O)NC(CN)c1ncc(CO)s1` (stereo not drawn) [Compound 7, N-(2-amino-1-(5-(hydroxymethyl)thiazol-2-yl)ethyl)-3-methyl-5-(5-(trifluoromethyl)pyridin-2-yl)-1H-pyrrole-2-carboxamide]: the CC50 at 3 days in “in vitro” (CC50) was 92.8 ± 2.4 µM. The IC50 in the data set with pseudovirus HIV-1 HXB2 (setting [1]) is less than 1 µM.

In turn, `Cc1cc(-c2ccc(C(F)(F)F)cn2)[nH]c1C(=O)NC(CN)c1cnc(CO)s1` (stereo not drawn) [Compound 61, N-(2-Amino-1-(2-(hydroxymethyl)thiazol-5-yl)ethyl)-3-methyl-5-(5-(trifluoromethyl)pyridin-2-yl)-1H-pyrrole-2-carboxamide] gave a CC50 at 3 days in the data set “in vitro” (CC50) of 65 ± 4.9 µM. For the same molecule, in the data set on pseudovirus HIV-1 HXB2 (setting [1]), the IC50 stood at 2.3 ± 1 µM.

For `Cc1cc(-c2ccc(C(F)(F)F)cn2)[nH]c1C(=O)NC(CN)c1csc(CO)n1` (stereo not drawn) [Compound 63, N-(2-Amino-1-(2-(hydroxymethyl)thiazol-4-yl)ethyl)-3-methyl-5-(5-(trifluoromethyl)pyridin-2-yl)-1H-pyrrole-2-carboxamide], the CC50 at 3 days in “in vitro” (CC50) turned out to be 42.3 ± 0.2 µM. Besides, the IC50 with pseudovirus HIV-1 HXB2 (setting [1]) is 1.4 ± 0.1 µM.

`NCC(NC(=O)c1ccc(-c2ccc(C(F)(F)F)nn2)[nH]1)c1nc(CO)cs1` (stereo not drawn) [Compound 43, N-(2-Amino-1-(4-(hydroxymethyl)thiazol-2-yl)ethyl)-5-(6-(trifluoromethyl)pyridazin-3-yl)-1H-pyrrole-2-carboxamide]: in “in vitro” (CC50), the CC50 at 3 days is more than 73 µM. The IC50 is more than 10 µM in the data set with pseudovirus HIV-1 HXB2 (setting [1]) and more than 12 µM in the data set on pseudovirus HIV-1 HXB2 (setting [2]).

For `NCC(NC(=O)c1ccc(-c2ccc(C(F)(F)F)cn2)[nH]1)c1nccs1` (stereo not drawn) [Compound 37, N-(2-Amino-1-(thiazol-2-yl)ethyl)-5-(5-(trifluoromethyl)pyridin-2-yl)-1H-pyrrole-2-carboxamide], the CC50 at 3 days in the data set “in vitro” (CC50) was found to be 89.3 ± 1 µM. Further, the IC50 with pseudovirus HIV-1 HXB2 (setting [1]) came to 2 ± 0.2 µM.

For `NCC(NC(=O)c1ccc(-c2ccc(C(F)(F)F)cn2)[nH]1)c1csc(CO)n1` (stereo not drawn) [Compound 65, N-(2-Amino-1-(2-(hydroxymethyl)thiazol-4-yl)ethyl)-5-(5-(trifluoromethyl)pyridin-2-yl)-1H-pyrrole-2-carboxamide], the CC50 at 3 days in the data set “in vitro” (CC50) is 84.3 ± 1.4 µM. In addition, the IC50 with pseudovirus HIV-1 HXB2 (setting [1]) stood at 1.6 ± 0.2 µM.

Consider `NCC(NC(=O)c1ccc(-c2ccc(C(F)(F)F)cn2)[nH]1)c1ncc(C(O)CO)s1` (stereo not drawn) [Compound 13, N-(2-Amino-1-(5-(1,2-dihydroxyethyl)thiazol-2-yl)ethyl)-5-(5-(trifluoromethyl)pyridin-2-yl)-1H-pyrrole-2-carboxamide], for which the CC50 at 3 days in the data set “in vitro” (CC50) is more than 113 µM; in “in vitro” (setting [3]), more than 100 µM. Moreover, the IC50 with pseudovirus HIV-1 HXB2 (setting [2]) turned out to be 2.1 ± 0.3 µM.

As to `NCC(NC(=O)c1ccc(-c2ccc(Cl)nc2)[nH]1)c1nc(CO)cs1` (stereo not drawn) [Compound 39, N-(2-Amino-1-(4-(hydroxymethyl)thiazol-2-yl)ethyl)-5-(6-chloropyridin-3-yl)-1H-pyrrole-2-carboxamide], the CC50 at 3 days is more than 132 µM in “in vitro” (CC50) and more than 100 µM in “in vitro” (setting [3]). For the same molecule, the figures for the IC50 in the data set with pseudovirus HIV-1 HXB2 (setting [1]) and in the data set with pseudovirus HIV-1 HXB2 (setting [2]) were more than 10 µM and more than 11 µM, respectively.

`NCC(NC(=O)c1ccc(-c2ccc(F)cn2)[nH]1)c1nc(CO)cs1` (stereo not drawn) [Compound 17, N-(2-Amino-1-(4-(hydroxymethyl)thiazol-2-yl)ethyl)-5-(5-fluoropyridin-2-yl)-1H-pyrrole-2-carboxamide]: the CC50 at 3 days in “in vitro” (CC50) was more than 138 µM; in the data set “in vitro” (setting [3]), more than 100 µM. Besides, the IC50 in the data set with pseudovirus HIV-1 HXB2 (setting [1]) was more than 10 µM; in the data set with pseudovirus HIV-1 HXB2 (setting [2]), more than 11 µM.

With `NCC(NC(=O)c1ccc(-c2ccc(C(F)(F)F)cn2)[nH]1)c1ncc(CO)s1` (stereo not drawn) [Compound 5, N-(2-Amino-1-(5-(hydroxymethyl)thiazol-2-yl)ethyl)-5-(5-(trifluoromethyl)pyridin-2-yl)-1H-pyrrole-2-carboxamide], the CC50 at 3 days in “in vitro” (CC50) is more than 122 µM. Moreover, the values for the IC50 in the data set with pseudovirus HIV-1 HXB2 (setting [1]) and in the data set with pseudovirus HIV-1 HXB2 (setting [2]) were less than 1 µM and 0.96 µM, respectively.

`NCC(NC(=O)c1ccc(-c2ccc(Cl)cn2)[nH]1)c1ncc(CO)s1` (stereo not drawn) [Compound 2, N-(2-Amino-1-(5-(hydroxymethyl)thiazol-2-yl)ethyl)-5-(5-chloropyridin-2-yl)-1H-pyrrole-2-carboxamide] came in with a CC50 at 3 days in the data set “in vitro” (CC50) of 142 ± 1.7 µM. In addition, the IC50 in the data set on pseudovirus HIV-1 HXB2 (setting [2]) is 2.7 ± 0.7 µM.

In “in vitro” (CC50), `NCC(NC(=O)c1ccc(-c2ncc(Cl)cn2)[nH]1)c1nc(CO)cs1` (stereo not drawn) [Compound 45, N-(2-Amino-1-(4-(hydroxymethyl)thiazol-2-yl)ethyl)-5-(5-chloropyrimidin-2-yl)-1H-pyrrole-2-carboxamide] had a CC50 at 3 days of more than 66 µM. Moreover, the IC50 is more than 10 µM in the data set on pseudovirus HIV-1 HXB2 (setting [1]) and more than 15.8 µM in the data set with pseudovirus HIV-1 HXB2 (setting [2]).

With `NCC(NC(=O)c1ccc(-c2ccc(C(F)(F)F)cn2)[nH]1)c1nc(CO)cs1` (stereo not drawn) [Compound 21, N-(2-Amino-1-(4-(hydroxymethyl)thiazol-2-yl)ethyl)-5-(5-(trifluoromethyl)pyridin-2-yl)-1H-pyrrole-2-carboxamide], the CC50 at 3 days in “in vitro” (CC50) amounted to 96 ± 6 µM. Further, the 50% inhibitory concentration (IC50) in the data set with pseudovirus HIV-1 HXB2 (setting [2]) worked out at 0.5 µM.

Take `NCC(NC(=O)c1ccc(-c2ccc(C(F)(F)F)cn2)[nH]1)c1nc(CO)c(CO)s1` (stereo not drawn) [Compound 35, N-(2-Amino-1-(4,5-bis(hydroxymethyl)thiazol-2-yl)ethyl)-5-(5-(trifluoromethyl)pyridin-2-yl)-1H-pyrrole-2-carboxamide]: the CC50 at 3 days in “in vitro” (CC50) was more than 113 µM. Moreover, the IC50 in the data set with pseudovirus HIV-1 HXB2 (setting [2]) was determined as 1.8 µM.

In the data set “in vitro” (CC50), `NCC(NC(=O)c1ccc(-c2ccc(C(F)(F)F)c(F)c2)[nH]1)c1ncc(CO)s1` (stereo not drawn) [Comparator A, reference compound] displayed a CC50 at 3 days of 21.9 µM. Moreover, the IC50 in the data set with pseudovirus HIV-1 HXB2 (TZM-bl) worked out at 0.089 µM.

For the molecule `NCC(NC(=O)c1ccc(-c2ccc(C(F)(F)F)nc2)[nH]1)c1nc(CO)cs1` (stereo not drawn) [Compound 41, N-(2-Amino-1-(4-(hydroxymethyl)thiazol-2-yl)ethyl)-5-(6-(trifluoromethyl)pyridin-3-yl)-1H-pyrrole-2-carboxamide], the CC50 at 3 days in “in vitro” (CC50) is more than 122 µM; in the data set “in vitro” (setting [3]) it was more than 100 µM. Besides, the IC50 was more than 10 µM in the data set with pseudovirus HIV-1 HXB2 (setting [1]) and 12.7 ± 2.8 µM with pseudovirus HIV-1 HXB2 (setting [2]).

Take `NCC(NC(=O)c1ccc(-c2ccc(C(F)(F)F)cc2)[nH]1)c1ncc(CO)s1` (stereo not drawn) [Comparator B, reference compound]: the CC50 at 3 days in “in vitro” (CC50) came out at 34 µM.

What is called IC50 is the concentration needed to halve the response being measured.
